# Data from patent publication US20160303138A1, “Combination Therapy Of Substituted Oxazolidinones” (Bayer Intellectual Property GMBH, priority 2006, published 2016).
# Test system: arteriovenous shunt model in rats
# Test: Antithrombotic effect in an arteriovenous shunt model in rats
# Format: in vivo
# Experimental: a) Determination of the Antithrombotic Effect in an Arteriovenous Shunt Model in Rats Fasting male rats (strain: HSD CPB:WU) were anesthetized by intraperitoneal administration of a Rompun/Ketavet solution (12 mg/kg/50 mg/kg). Thrombi were generated in an arteriovenous shunt in which a thrombogenic thread was secured, based on the method described by P C Wong et al. (Wong […], Nguan O, Watson […]. […] For this purpose, the left jugular vein and the right carotid artery were exposed. An 8 cm-long polyethylene catheter (PE60, Becton-Dickinson), followed by a 6 cm-long Tygon tube (R-3606, ID 3.2 mm, Kronlab), which contained a roughened, thrombogenic nylon thread (60×0.26 mm, […]) made into a double loop, was secured in the artery. A 2 cm-long polyethylene catheter (PE60, Becton-Dickinson) was secured in the jugular vein and connected via a 6 cm-long polyethylene catheter (PE160, Becton-Dickinson) to the Tygon tube. The tubes were filled with physiological saline solution before the shunt was opened. The extracorporeal circulation was maintained for 15 minutes. The shunt was then removed, and the nylon thread with the thrombus was immediately weighed. The empty weight of nylon thread has been determined before the start of the test. The FXa inhibitor (such as rivaroxaban) was administered to the animals intravenously, and acetylsalicylic acid (ASA) and/or ADP receptor antagonist (such as clopidogrel) was administered orally by gavage before setting up the extracorporeal circulation.
# [1] = doses [mg/kg]: Example 44 0.01 iv, Clopi + ASA 1 po + 3 po, triple 0.01 iv + 1 po + 3 po
# [2] = doses [mg/kg]: Example 44 0.03 iv, Clopi + ASA 1 po + 3 po, triple 0.03 iv + 1 po + 3 po
compound,measurement,setting,value
"O=C(NC[C@H]1CN(c2ccc(N3CCOCC3=O)cc2)C(=O)O1)c1ccc(Cl)s1 [Example 44, 5-Chloro-N-({(5S)-2-oxo-3-[4-(3-oxo-4-morpholinyl)phenyl]-1,3-oxazolidin-5-yl}methyl)-2-thiophencarboxamide]",Antithrombotic effect (assessment in words),[1],No effect
same,Thrombus reduction [%],[1],18%
same,Antithrombotic effect (assessment in words),[2],No effect
same,Thrombus weight reduction [%],[2],20%
same,"Antithrombotic effect, summary of Table 1 in words",doses of Table 1,ineffective
